Results taken from article PMC6940912, “Novel Drug-Like Somatostatin Receptor 4 Agonists are Potential Analgesics for Neuropathic Pain” (International Journal of Molecular Sciences, 2019).

Experiments:
sst4 receptor = biological target: T1, sst4 receptor (Homo sapiens, UniProt P31391); assay: sst4 receptor-linked G-protein activation, [35S]GTPγS binding assay on membranes of sst4-expressing CHO cells; format: biochemical; settings: for EC50: 1 nM to 10 µM, n = 3; for Emax: [35S]GTPγS binding, mean ± SEM, n = 3, read-out: Maximal activation over the basal activity of the receptor (efficacy)
T1 construct: expressed in transfected cells; host or cells: CHO cells
Experimental: Membrane fractions were prepared from CHO cells, which express the sst4 receptor, in Tris–ethylene glycol-bis(2-aminoethyl)tetraacetic acid (Tris–EGTA) buffer (50 mM Tris–HCl (Sigma, St. Louis, MO, USA), 1 mM EGTA (Sigma, St. Louis, MO, USA), 3 mM MgCl2 (Sigma, St. Louis, MO, USA), 100 mM NaCl (Sigma, St. Louis, MO, USA), pH 7.4, 10 μg of protein/sample). The fractions were incubated in the buffer containing 0.05 nM guanosine triphosphate (GTP) (BioChemica International Inc., Melbourne, Florida, USA), labeled on the gamma phosphate group with ^35S ([^35S]GTPγS) (Isotop Institute, Budapest, Hungary) and increasing concentrations (1 nM to 10 µM) of C1, C2, C3 and C4 compounds for 60 min at 30 °C, in the presence of 30 μM guanosine diphosphate (GDP) (Sigma, St. Louis, MO, USA). We determined the nonspecific binding in the presence of 10 μM unlabeled GTPγS and total binding in the absence of test compounds. Samples were filtrated through Whatman GF/B glass fiber filters using 48-well Slot Blot Manifold from Cleaver Scientific (Cleaver Scientific Ltd., Rugby, Warwickshire, United Kingdom). Filters were washed with ice-cold 50 mM Tris–HCl buffer (pH 7.4) and radioactivity was measured in a β-counter (PerkinElmer Inc., Waltham, MA, USA). The test-compound-induced G-protein activation was given as percentage over the specific [^35S]GTPγS binding detected in the absence of agonists.
(§1) In the sst4 receptor activation assay, all the compounds were dissolved in dimethyl sulfoxide (DMSO) (Szkarabeusz Ltd., Pécs, Hungary). The concentration of the stock solutions was 10 mM and was diluted with distilled water to reach the final concentrations. For the in vivo experiments, 1 mg of the compounds was rubbed dry in a braying mortar, suspended thoroughly in 1 mL 1.25% methylcellulose (MC) (Pharmacy of University of Pécs, Pécs, Hungary) solution and then dissolved in sterile bidistilled water to get a 1000 µg/mL stock solution freshly every experimental day. Most microsuspensions looked opalescent; they were shaken properly, sonicated, and further diluted with 1.25% MC to obtain the 25 µg/mL solution for oral administrations (0.2 mL/10 g body weight for the 500 µg/kg dose). The solutions were shaken and sonicated again directly before use. The vehicle was always 1.25% MC dissolved in sterile bidistilled water.

Male NMRI mice [1] = assay: RTX-induced acute neurogenic inflammatory thermal allodynia and mechanical hyperalgesia; format: in vivo, mouse; settings: oral pretreatment 1 h before intraplantar RTX, printed dose 500 µg/kg; for Effect on acute neurogenic inflammatory heat hyperalgesia: at 10 and 30 min; for Effect on RTX-induced mechanical hyperalgesia: at 30 min
Experimental: The investigated compounds (500 µg/kg p.o.) or the vehicle were administered orally 1 h before the induction of the acute neurogenic inflammation by intraplantar RTX (Sigma, St. Louis, MO, USA) injection (20 µL, 0.1 µg/mL) into the right hindpaw. RTX evokes an acute neurogenic inflammatory reaction with the development of a rapid thermal allodynia, mainly due to peripheral sensitization mechanisms, and a later developing mechanical hyperalgesia due also to central sensitization. The nociceptive heat threshold was determined before (control) and 10, 20 and 30 min after RTX administration with an increasing-temperature hot plate (IITC Life Science, Woodland Hills, CA, USA). […] The mechanonociceptive threshold was measured with an electronic von Frey device (dynamic plantar aesthesiometer (DPA), Ugo Basile, Comerio, Italy) prior to RTX injection and 30, 60 and 90 min afterwards. The measurement at 30 min was performed immediately after the last heat threshold measurement. The experiment consisted of two separate series on consecutive days and the number of animals in the control group was six per day. Therefore, the control group contained 12 mice, and six and five mice were used in the C1- and C2-treated groups, respectively.
as §1
Male NMRI mice (8–12 weeks old) bred in the Laboratory Animal House of the Department of Pharmacology and Pharmacotherapy of the University of Pecs were kept in standard plastic cages at 24–25 °C, under a 12–12 h light–dark cycle and provided with standard rodent chow and water ad libitum. […]

Male NMRI mice [2] = assay: Partial sciatic nerve ligation-induced chronic traumatic neuropathic mechanical hyperalgesia; format: in vivo, mouse; settings: for Mechanonociceptive threshold of operated limb, 1 h after treatment / Neuropathic mechanical hyperalgesia, 1 h after treatment / Mechanonociceptive threshold of operated limb, before treatment / Neuropathic mechanical hyperalgesia, before treatment: day 7 after sciatic nerve ligation, n = 8; for Mechanonociceptive threshold of operated limb, 1 h after treatment / Neuropathic mechanical hyperalgesia, 1 h after treatment: 500 µg/kg oral, 1 h later; for Mechanonociceptive threshold of operated limb, before treatment / Neuropathic mechanical hyperalgesia, before treatment: pretreatment self-control; for Anti-hyperalgesic effect on neuropathic mechanical hyperalgesia: traumatic nerve injury, single oral 500 µg/kg
Experimental: After conditioning and two control mechanonociceptive measurements on 2 consecutive days, mice were anaesthetized by the combination of ketamine (100 mg/kg, i.p.) and xylazine (10 mg/kg, i.p.). Traumatic mononeuropathy was achieved by one-third to one-half part ligation of the right sciatic nerve. Significant decrease in the mechanical threshold develops 7 days after operation. The mechanonociceptive threshold of the plantar surface of the hindpaws was measured by DPA on the 7th postoperative day. The paw withdrawal threshold was obtained in grams (the maximal value was 10 g; ramp time of 4 s). The compounds (500 µg/kg) or the vehicle were administered orally on day 7, one hour before the repeated measurement. The experiment consisted of separate series on 3 consecutive days, and there were 2–3 vehicle-treated control animals in every series. Therefore, each group contained 8 mice.
as §1
Male NMRI mice (8–12 weeks old) bred in the Laboratory Animal House of the Department of Pharmacology and Pharmacotherapy of the University of Pecs were kept in standard plastic cages at 24–25 °C, under a 12–12 h light–dark cycle and provided with standard rodent chow and water ad libitum. All experimental procedures complied with the recommendations of the 1998/XXVIII Act of the Hungarian Parliament on Animal Protection and Consideration Decree of Scientific Procedures of Animal Experiments (63/2010) and were approved by the Ethics Committee on Animal Research of Pecs University according to the Ethical Codex of Animal Experiments; license was given (license No. BA1/35/55-50/2017). We made all efforts to minimize the number and suffering of the animals used in this study.

PDE3A = biological target: T2, PDE3A (Homo sapiens, UniProt Q14432); assay: Selectivity profile (Eurofins Cerep), enzyme inhibition; format: biochemical; settings: % inhibition of control enzyme activity, read-out: Enzymatic Activity (%)
T2 construct: Eurofins Cerep (contract assay)
Experimental: (§2) The evaluation was performed by Eurofins Cerep (France). Compound binding was calculated as a % inhibition of the binding of a radioactively labeled ligand specific for each target. Enzyme inhibition effect was calculated as a % inhibition of control enzyme activity. Cellular agonist effect was calculated as a % of control response to a known reference agonist for each target, and cellular antagonist effect was calculated as a % inhibition of control reference agonist response for each target. In each experiment the respective reference compound was tested concurrently with Compound 1 [71, 72, 73, 74, 75, 76, 77, 78]. See in Supplementary Materials.

PDE4D2 = biological target: T3, PDE4D2 (Homo sapiens, UniProt Q08499); assay: as above; format: biochemical; settings: % inhibition of control enzyme activity, read-out: Enzymatic Activity (%)
T3 construct: Eurofins Cerep (contract assay)
Experimental: as §2

COX-2 = biological target: T4, COX-2 (Homo sapiens, UniProt P35354); assay: as above; format: biochemical; settings: % inhibition of control enzyme activity, read-out: Enzymatic Activity (%)
T4 construct: Eurofins Cerep (contract assay)
T4 sequence (P35354 18-604): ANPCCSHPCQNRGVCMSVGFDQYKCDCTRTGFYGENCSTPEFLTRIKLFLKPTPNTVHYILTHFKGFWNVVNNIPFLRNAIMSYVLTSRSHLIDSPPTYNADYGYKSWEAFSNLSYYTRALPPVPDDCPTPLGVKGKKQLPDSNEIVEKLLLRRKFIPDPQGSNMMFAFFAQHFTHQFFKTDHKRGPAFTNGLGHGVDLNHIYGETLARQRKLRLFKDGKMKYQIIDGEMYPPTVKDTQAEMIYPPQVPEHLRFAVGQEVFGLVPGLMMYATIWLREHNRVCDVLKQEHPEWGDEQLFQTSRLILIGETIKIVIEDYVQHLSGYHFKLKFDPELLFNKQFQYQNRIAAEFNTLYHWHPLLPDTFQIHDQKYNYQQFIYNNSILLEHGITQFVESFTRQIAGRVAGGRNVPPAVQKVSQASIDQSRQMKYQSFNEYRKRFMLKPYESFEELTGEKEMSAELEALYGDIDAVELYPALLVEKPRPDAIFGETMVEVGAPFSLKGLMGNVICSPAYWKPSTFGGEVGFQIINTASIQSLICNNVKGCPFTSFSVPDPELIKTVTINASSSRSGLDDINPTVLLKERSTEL
Experimental: as §2

MAOA = biological target: T5, MAOA (Homo sapiens, UniProt P21397); assay: as above; format: biochemical; settings: % inhibition of control enzyme activity, read-out: Enzymatic Activity (%)
T5 construct: Eurofins Cerep (contract assay)
T5 sequence (P21397 1-527): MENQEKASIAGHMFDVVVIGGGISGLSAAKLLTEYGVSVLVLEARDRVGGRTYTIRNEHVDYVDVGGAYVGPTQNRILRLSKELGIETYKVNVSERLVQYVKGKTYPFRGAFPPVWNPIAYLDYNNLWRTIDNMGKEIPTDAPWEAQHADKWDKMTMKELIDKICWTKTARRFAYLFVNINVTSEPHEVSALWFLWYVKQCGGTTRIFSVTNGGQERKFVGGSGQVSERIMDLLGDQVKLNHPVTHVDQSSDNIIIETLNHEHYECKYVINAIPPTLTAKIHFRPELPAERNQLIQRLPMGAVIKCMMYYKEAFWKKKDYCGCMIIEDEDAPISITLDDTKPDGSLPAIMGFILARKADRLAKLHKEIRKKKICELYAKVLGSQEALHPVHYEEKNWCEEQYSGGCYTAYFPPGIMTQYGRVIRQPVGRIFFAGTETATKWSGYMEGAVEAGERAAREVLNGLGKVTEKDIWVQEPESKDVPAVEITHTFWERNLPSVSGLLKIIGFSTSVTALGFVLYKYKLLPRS
Experimental: as §2

CB2 = biological target: T6, CB2 (Homo sapiens, UniProt P34972); assay: Selectivity profile (Eurofins Cerep), cellular agonist/antagonist effect; format: cell-based; settings: 1 µM
T6 construct: Eurofins Cerep (contract assay)
Experimental: as §2

CB1 = biological target: T7, CB1 (Homo sapiens, UniProt P21554); assay: as above; format: cell-based; settings: 1 µM
T7 construct: Eurofins Cerep (contract assay)
Experimental: as §2

D1 = biological target: T8, D1 (Homo sapiens, UniProt P21728); assay: as above; format: cell-based; settings: 1 µM
T8 construct: Eurofins Cerep (contract assay)
Experimental: as §2

Kappa (KOP) = biological target: T9, Kappa (KOP) (Homo sapiens, UniProt P41145); assay: as above; format: cell-based; settings: 1 µM
T9 construct: Eurofins Cerep (contract assay)
Experimental: as §2

Delta (DOP) = biological target: T10, Delta (DOP) (Homo sapiens, UniProt P41143); assay: as above; format: cell-based; settings: 1 µM
T10 construct: Eurofins Cerep (contract assay)
Experimental: as §2

D2S = biological target: T11, D2S (Homo sapiens, UniProt P14416); assay: as above; format: cell-based; settings: 1 µM
T11 construct: Eurofins Cerep (contract assay)
Experimental: as §2

Mu (MOP) = biological target: T12, Mu (MOP) (Homo sapiens, UniProt P35372); assay: as above; format: cell-based; settings: 1 µM
T12 construct: Eurofins Cerep (contract assay)
Experimental: as §2

Ca2+ channel = assay: Selectivity profile (Eurofins Cerep), radioligand binding; settings: 1 µM, % inhibition of binding of radiolabeled ligand
Experimental: as §2

K+ channel hERG = biological target: T13, K+ channel hERG (Homo sapiens, UniProt Q12809); assay: as above; settings: 1 µM, % inhibition of binding of radiolabeled ligand
T13 construct: Eurofins Cerep (contract assay)
Experimental: as §2

[3] = % inhibition of control reference agonist response
[4] = % of control response to reference agonist

T1 sequence (P31391 whole entry): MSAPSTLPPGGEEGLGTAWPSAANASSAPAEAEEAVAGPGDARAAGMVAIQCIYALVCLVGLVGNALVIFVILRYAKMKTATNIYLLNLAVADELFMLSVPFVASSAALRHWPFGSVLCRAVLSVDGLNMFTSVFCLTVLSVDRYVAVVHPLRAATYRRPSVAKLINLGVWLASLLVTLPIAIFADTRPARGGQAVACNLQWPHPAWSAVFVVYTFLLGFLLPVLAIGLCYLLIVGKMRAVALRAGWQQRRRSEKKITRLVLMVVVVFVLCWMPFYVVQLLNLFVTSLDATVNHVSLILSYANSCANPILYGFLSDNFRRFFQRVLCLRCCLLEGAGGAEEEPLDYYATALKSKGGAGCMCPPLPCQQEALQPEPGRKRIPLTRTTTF
T9 sequence (P41145 whole entry): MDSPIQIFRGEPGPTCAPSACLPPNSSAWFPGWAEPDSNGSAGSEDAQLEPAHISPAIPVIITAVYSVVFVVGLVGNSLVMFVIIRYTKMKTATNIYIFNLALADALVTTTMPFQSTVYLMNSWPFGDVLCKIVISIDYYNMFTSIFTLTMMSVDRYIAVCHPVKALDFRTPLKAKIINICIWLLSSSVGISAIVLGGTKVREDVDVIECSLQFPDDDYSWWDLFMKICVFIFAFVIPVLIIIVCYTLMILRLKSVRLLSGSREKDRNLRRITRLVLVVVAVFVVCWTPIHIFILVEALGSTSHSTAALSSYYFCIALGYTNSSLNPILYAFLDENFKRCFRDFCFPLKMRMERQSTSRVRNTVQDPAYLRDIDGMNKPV
T7 sequence (P21554 whole entry): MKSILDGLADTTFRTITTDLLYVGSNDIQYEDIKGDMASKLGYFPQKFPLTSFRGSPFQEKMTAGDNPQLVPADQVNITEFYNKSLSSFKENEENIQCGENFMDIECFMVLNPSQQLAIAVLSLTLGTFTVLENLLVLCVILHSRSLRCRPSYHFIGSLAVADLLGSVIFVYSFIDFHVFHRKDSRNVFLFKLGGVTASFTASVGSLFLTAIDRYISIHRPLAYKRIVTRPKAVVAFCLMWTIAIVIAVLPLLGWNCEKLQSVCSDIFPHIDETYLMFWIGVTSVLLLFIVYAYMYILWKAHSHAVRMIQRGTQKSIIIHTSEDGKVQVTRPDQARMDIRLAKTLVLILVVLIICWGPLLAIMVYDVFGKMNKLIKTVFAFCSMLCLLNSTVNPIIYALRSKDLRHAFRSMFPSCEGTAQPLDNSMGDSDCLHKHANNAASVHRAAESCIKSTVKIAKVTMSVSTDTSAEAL
T6 sequence (P34972 whole entry): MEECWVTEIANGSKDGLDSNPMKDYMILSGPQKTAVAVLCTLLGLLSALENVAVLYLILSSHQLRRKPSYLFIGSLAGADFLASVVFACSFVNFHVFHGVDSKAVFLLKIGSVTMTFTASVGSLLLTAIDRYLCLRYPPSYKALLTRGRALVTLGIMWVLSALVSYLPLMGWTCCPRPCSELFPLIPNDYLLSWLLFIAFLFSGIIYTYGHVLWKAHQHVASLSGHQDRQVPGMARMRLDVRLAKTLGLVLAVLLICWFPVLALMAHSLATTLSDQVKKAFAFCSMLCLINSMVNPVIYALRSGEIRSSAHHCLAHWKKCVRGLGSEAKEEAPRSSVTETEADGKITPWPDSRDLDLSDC
T8 sequence (P21728 whole entry): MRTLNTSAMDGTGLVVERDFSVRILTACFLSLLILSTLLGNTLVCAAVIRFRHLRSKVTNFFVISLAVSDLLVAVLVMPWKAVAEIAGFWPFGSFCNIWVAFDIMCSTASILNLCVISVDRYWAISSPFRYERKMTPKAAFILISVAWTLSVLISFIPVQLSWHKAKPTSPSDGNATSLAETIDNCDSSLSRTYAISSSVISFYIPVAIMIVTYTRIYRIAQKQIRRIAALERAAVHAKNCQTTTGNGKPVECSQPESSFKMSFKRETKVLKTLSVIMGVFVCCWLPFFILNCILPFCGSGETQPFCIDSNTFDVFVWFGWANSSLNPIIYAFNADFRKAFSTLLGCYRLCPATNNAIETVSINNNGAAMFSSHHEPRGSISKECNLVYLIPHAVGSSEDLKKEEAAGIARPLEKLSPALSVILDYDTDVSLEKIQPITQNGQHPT
T12 sequence (P35372 whole entry): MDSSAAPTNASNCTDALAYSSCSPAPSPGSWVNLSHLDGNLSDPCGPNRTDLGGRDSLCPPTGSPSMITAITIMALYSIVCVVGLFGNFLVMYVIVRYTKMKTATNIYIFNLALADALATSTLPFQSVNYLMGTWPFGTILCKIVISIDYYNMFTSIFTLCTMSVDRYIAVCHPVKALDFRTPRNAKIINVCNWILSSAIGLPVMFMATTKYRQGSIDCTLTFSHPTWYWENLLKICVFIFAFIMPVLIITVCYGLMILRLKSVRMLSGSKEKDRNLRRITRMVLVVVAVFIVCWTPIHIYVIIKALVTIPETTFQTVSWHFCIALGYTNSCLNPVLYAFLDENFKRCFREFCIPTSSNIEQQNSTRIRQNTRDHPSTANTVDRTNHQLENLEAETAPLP
T10 sequence (P41143 whole entry): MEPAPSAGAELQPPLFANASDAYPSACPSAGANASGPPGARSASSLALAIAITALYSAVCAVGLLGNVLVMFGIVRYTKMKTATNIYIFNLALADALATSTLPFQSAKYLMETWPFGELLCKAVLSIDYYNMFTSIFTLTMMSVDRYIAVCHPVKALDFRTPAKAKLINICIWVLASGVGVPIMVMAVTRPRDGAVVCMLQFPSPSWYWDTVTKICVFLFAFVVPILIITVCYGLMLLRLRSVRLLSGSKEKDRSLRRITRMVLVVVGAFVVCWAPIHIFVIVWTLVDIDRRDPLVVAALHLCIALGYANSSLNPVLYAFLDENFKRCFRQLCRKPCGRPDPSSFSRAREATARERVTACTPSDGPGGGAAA
T11 sequence (P14416 1-414 isoform P14416-2): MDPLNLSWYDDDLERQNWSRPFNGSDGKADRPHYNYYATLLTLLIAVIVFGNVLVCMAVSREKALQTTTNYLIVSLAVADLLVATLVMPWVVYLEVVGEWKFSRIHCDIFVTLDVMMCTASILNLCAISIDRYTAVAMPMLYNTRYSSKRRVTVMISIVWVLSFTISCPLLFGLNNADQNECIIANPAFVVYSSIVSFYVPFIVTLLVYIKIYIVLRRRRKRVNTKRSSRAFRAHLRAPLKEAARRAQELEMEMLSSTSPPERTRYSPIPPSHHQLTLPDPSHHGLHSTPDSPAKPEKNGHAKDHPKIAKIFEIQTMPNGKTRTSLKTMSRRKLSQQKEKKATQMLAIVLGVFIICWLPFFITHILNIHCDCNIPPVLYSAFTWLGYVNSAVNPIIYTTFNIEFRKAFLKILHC
T13 sequence (Q12809 whole entry): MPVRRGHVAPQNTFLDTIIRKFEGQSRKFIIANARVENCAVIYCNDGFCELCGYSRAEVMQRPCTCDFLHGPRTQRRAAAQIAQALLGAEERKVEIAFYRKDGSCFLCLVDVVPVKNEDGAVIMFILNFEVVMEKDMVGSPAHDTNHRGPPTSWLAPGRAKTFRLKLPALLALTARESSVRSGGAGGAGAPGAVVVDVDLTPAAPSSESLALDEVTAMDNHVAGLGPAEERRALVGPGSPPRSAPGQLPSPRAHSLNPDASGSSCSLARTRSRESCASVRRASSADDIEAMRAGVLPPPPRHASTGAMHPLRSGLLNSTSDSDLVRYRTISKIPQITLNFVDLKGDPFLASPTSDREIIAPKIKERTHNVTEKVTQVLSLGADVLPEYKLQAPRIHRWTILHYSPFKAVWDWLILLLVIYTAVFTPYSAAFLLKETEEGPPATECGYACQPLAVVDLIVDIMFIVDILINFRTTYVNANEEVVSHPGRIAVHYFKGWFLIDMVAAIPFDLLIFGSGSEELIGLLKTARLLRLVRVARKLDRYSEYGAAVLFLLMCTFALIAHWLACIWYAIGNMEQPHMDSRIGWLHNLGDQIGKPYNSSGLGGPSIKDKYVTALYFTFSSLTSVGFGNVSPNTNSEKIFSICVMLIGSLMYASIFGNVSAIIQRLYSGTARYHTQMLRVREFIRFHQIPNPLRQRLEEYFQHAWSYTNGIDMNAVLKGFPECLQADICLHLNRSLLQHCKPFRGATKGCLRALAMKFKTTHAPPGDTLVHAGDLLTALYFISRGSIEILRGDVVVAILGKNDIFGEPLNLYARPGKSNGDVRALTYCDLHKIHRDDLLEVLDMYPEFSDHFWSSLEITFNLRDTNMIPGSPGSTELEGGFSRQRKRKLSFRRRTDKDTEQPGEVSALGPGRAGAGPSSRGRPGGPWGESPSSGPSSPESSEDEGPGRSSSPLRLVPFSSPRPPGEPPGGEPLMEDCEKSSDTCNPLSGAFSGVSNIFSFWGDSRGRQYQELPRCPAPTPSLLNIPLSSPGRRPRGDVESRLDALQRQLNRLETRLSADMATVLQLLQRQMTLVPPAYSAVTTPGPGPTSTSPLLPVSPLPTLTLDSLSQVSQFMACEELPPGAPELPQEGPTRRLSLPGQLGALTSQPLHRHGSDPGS
T3 sequence (Q08499 303-809 limits assumed): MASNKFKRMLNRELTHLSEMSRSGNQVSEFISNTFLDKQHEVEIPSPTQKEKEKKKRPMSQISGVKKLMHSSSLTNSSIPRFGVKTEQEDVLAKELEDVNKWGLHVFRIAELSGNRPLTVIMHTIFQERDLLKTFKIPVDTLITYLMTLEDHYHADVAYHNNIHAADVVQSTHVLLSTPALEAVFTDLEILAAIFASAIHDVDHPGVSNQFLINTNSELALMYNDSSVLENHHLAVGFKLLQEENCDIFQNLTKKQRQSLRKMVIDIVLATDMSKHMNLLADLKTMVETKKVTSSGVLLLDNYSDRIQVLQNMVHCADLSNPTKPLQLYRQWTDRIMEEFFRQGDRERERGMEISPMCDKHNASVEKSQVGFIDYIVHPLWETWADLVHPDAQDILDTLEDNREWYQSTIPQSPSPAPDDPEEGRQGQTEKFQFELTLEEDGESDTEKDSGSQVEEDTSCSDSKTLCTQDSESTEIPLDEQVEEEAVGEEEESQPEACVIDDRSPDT

Row | SMILES | EC50 (sst4 receptor) | Emax (sst4 receptor) | Effect on acute neurogenic inflammatory heat hyperalgesia (Male NMRI mice [1]) | Effect on RTX-induced mechanical hyperalgesia (Male NMRI mice [1]) | Mechanonociceptive threshold of operated limb, 1 h after treatment (Male NMRI mice [2]) | Neuropathic mechanical hyperalgesia, 1 h after treatment (Male NMRI mice [2]) | Mechanonociceptive threshold of operated limb, before treatment (Male NMRI mice [2]) | Neuropathic mechanical hyperalgesia, before treatment (Male NMRI mice [2]) | Anti-hyperalgesic effect on neuropathic mechanical hyperalgesia (Male NMRI mice [2]) | further results
1 | COc1ccc(CNc2ncnc3c2c(C)c(C)n3Cc2ccccc2)cc1 [Compound 4, 4-Methoxy-benzyl-[7-benzyl-5,6-dimethyl-7H-pyrrolo[2,3-d]pyrimidin-4-yl]-amine] | 0.07 µM | 177% | – | – | – | – | – | – | – | –
2 | COc1ccc(CCNc2ncnc3c2c(C)c(C)n3Cc2ccccc2)cc1 [Compound 2, (7-Benzyl-5,6-dimethyl-7H-pyrrolo[2,3-d]pyrimidin-4-yl)-[2-(4-methoxy-phenyl)-ethyl]-amine] | 0.066 µM | 203% | not | not | 8.04 ± 0.31 g | 15.70% ± 2.84 | 6.53 ± 0.30 g | 31.39% ± 3.39 | 50% | –
3 | c1ccc(CCNc2ncnc3c2ccn3Cc2ccccc2)cc1 [Compound 1, (7-Benzyl-7H-pyrrolo[2,3-d]pyrimidin-4-yl)-phenethyl-amine] | 0.037 µM | 218% | significantly decreased | significantly decreased | 8.53 ± 0.37 g | 9.98% ± 3.92 | 6.51 ± 0.18 g | 31.22% ± 2.11 | approximately 70% | inhibition at 1 µM (PDE3A): -15%; inhibition at 1 µM (PDE4D2): -0.6%; inhibition at 1 µM (COX-2): -10.4%; inhibition at 1 µM (MAOA): 2.7%; Antagonist Effect (%) (CB2; [3]): 7.7%; Agonist Effect (%) (CB2; [4]): 58.9%; Antagonist Effect (%) (CB1; [3]): −1.5%; Agonist Effect (%) (CB1; [4]): 30.8%; Antagonist Effect (%) (D1; [3]): −10%; Agonist Effect (%) (D1; [4]): 3.3%; Antagonist Effect (%) (Kappa (KOP); [3]): 23.6%; Agonist Effect (%) (Kappa (KOP); [4]): −1.5%; Antagonist Effect (%) (Delta (DOP); [3]): −1.4%; Agonist Effect (%) (Delta (DOP); [4]): −0.3%; Antagonist Effect (%) (D2S; [3]): −11.5%; Agonist Effect (%) (D2S; [4]): 17.2%; Antagonist Effect (%) (Mu (MOP); [3]): 20.2%; Agonist Effect (%) (Mu (MOP); [4]): 5.5%; Inhibition of radioligand binding (Ca2+ channel): 19.4%; Inhibition of radioligand binding (%) (K+ channel hERG): 23.6%
